Test [1] has as its system HCT 116 Cells. The test can be described thus: Aurora kinase whole cell cytotoxicity assay: Sulforhodamine B. It is filed as cell-based. Particulars: Homo sapiens, HCT116, SRB staining, 96 hours incubation. The protocol:
Human tumour-derived cell lines, HCT116 or MCF7 (ATCC) were plated in a 96 well plate in DMEM containing 10% fetal bovine serum and 2 mM L-glutamine at a density of 500 HCT116 cells or 1,000 MCF7 cells per well and incubated at 37° C., 5% CO2, for 24 hours prior to the addition of experimental compounds. Compounds were added using the dilution series indicated to duplicate plates and the cells were incubated in media plus compound for 96 hours. An additional plate was fixed in 10% TCA at the time of the addition of compound to provide a measurement of the cell population at time zero, the time of drug addition. Following the 96 hour incubation, cells were fixed in situ by gently aspirating off the culture media and then adding 50 ul of ice cold 10% TCA per well and incubation at 4° C. for 60 minutes. The plates were washed with tap water five times and allowed to air dry for 5 minute. 50 ul of a 0.4% (w/v) Sulforhodamine B solution in 1% (v/v) acetic acid was added per well and the cells were incubated for 30 minutes at room temperature. Following staining, plates were washed four times with 1% acetic acid to remove any unbound dye and then allowed to air dry for 5 minutes. The stain was solubilized with 100 ul of 10 mM Tris pH 10.5 per well and placed on an orbital rotator for 5 minutes. The absorbance was read at 570 nm. Percentage growth was calculated using the absorbance readings from the time zero plate (Tz) and the dilution series plate […] which included a column of cells grown in media without compound as a control (C) using the formulas: [(Ti−Tz)/(C−Tz)]×100 for concentrations for which Ti>/=Tz [(Ti−Tz)/Tz]×100 for concentrations for which Ti<Tz.
Three dose response parameters were calculated for each experimental agent. Growth inhibition of 50% (GI50) was calculated from [(Ti−Tz)/(C−Tz)]×100=50, which was the drug concentration resulting in a 50% reduction in the net protein increase (as measured by SRB staining) in control cells during the drug incubation. The drug concentration resulting in total growth inhibition (TGI) was calculated from Ti=Tz. The LC50 (concentration of drug resulting in a 50% reduction in the measured protein at the end of the drug treatment as compared to that at the beginning) indicating a net loss of cells following treatment ws calculated from [(Ti−Tz)/Tz]×100=−50. Values are calculated for each of these three parameters if the level of activity was reached; however, if the effect was not reached or was exceeded, the value for that parameter is expressed as greater or less than the maximum or minimum concentration tested.
In general terms: The SRB assay estimates cell density from bound dye.

Test [2] addresses Aurora B kinase (Homo sapiens, UniProt Q96GD4). Put plainly: Aurora B (Aurora 1) inhibition assay. In kind it is biochemical. Particulars: compound concentration 100 μM; ATP 50 μM, 16 h; read-out: inhibition of the Aurora B enzyme.
The target in test [3] is T1, recombinant Aurora A (Homo sapiens, UniProt O14965).
T1 construct: purchased Upstate, Lake Placid, N.Y
T1 sequence (O14965 1-403): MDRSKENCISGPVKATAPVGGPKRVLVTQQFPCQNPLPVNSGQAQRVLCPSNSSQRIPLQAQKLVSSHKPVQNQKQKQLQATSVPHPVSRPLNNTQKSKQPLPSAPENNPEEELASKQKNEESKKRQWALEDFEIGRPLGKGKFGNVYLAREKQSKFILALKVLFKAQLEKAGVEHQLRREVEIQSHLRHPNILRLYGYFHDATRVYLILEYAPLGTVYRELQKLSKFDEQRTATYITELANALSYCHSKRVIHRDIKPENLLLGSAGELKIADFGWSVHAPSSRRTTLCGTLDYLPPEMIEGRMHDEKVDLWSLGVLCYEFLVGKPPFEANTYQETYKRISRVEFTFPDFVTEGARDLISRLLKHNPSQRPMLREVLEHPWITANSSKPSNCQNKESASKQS
Put plainly: PanVera Z'-Lyte Aurora kinase assay. In kind it is biochemical. To be noted: Z'-Lyte Ser/Thr 1 peptide 2 μM, ATP 10 μM, 1 h. The protocol: Compounds 7-14 above were tested for their potency against recombinant Aurora A (Upstate, Lake Placid, N.Y.) using the PanVera Z'-Lyte kinase assay kit—Ser/Thr 1 peptide (Invitrogen, Carlsbad, Calif.). Assays were carried out in kinase assay buffer (50 mM HEPES, pH 7.5, 10 mM MgCl2, 5 mM EGTA, 0.05% Brij-35, 2 mM DTT). Test compounds were initially dissolved in DMSO at 100× the highest tested concentration, then serially diluted to 4× test concentrations in kinase assay buffer. Next, Aurora A (final concentration 200-500 ng/mL), Z′-Lyte Ser/Thr 1 peptide (final concentration 2 μM) and ATP (final concentration 10 μM) were added according to the manufacturer's instructions. Assays were carried out in half-area 96-well white polystyrene assay plates (Corning, Corning, N.Y.) in a final volume of 20 μL. The reaction was allowed to proceed for 1 h at room temperature in the dark, at which point the development reagent and stop reagent were added according to the manufacturer's instructions. Coumarin (Ex. 400 nm, Em. 465 nm) and fluorescein (Ex. 400 nm, Em. 565 nm) fluorescence values were measured on a SpectraFluor Plus plate reader (Tecan, Durham, N.C.). The emission ratio (coumarin/fluorescein) was determined and used to calculate the percent phosphorylation for each well. Wells containing substrate but no kinase and wells containing a phosphopeptide control were used to set 0% and 100% phosphorylation values, respectively. Typically 20-40% of the substrate was phosphorylated in wells without inhibitor. Dose-response curves of relative Aurora A activity vs. inhibitor concentration were plotted with Grafit (Erithacus Software, Horley, Surrey, UK) and used to calculate IC50 values.

Among the data in patent US8153630B2, “Kinase inhibitors” (Miikana Therapeutics, Inc., priority 2004, dated 2012) are GI50, inhibition and IC50 values, retold here.

Sequence of Aurora B kinase (Q96GD4 whole entry): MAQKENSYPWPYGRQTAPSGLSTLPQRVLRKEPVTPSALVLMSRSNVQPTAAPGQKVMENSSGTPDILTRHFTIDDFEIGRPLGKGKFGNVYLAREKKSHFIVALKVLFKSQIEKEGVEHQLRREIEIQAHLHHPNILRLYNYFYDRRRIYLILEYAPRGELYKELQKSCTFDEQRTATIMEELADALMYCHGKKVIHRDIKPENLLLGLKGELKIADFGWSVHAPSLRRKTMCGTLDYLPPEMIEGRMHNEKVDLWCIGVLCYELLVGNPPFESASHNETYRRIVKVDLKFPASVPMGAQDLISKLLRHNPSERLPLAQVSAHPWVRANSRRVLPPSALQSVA

In general, GI50 refers to the concentration that inhibits growth by half. In general, inhibition refers to the drop in the measured response relative to a control, in per cent. One may read the IC50 as the concentration at which inhibition is half-maximal. In test [1], `CCOC(=O)c1nc(Sc2ccc(NC(=O)C3CC3)cc2)nc(Nc2cc(C)[nH]n2)c1N` [Compound 11, Ethyl 2-(4-cyclopropanecarboxamidophenylsulfanyl)-5-amino-6-(5-methylpyrazol-3-ylamino)-4-pyrimidinecarboxylate] had a GI50 of 100 to 1000 nM. For the same molecule, in test [2], the inhibition at 100 µM was found to be 100%. The IC50 in test [3] is less than 100 nM.
Consider `Cc1cc(Nc2nc(Sc3ccc(NC(=O)C4CC4)cc3)nc(C(=O)NCC(F)(F)F)c2N)n[nH]1` [Compound 65, N-(2,2,2-Trifluoroethyl) 2-(4-cyclopropanecarboxamidophenylsulfanyl)-5-amino-6-(5-methylpyrazol-3-ylamino)-4-pyrimidinecarboxamide], for which the GI50 in test [1] was 100 to 1000 nM. Besides, in test [3], the IC50 was less than 100 nM.
The molecule `Cc1cc(Nc2nc(Sc3ccc(NC(=O)C4CC4)cc3)nc(C(=O)NCCN3CCOCC3)c2N)n[nH]1` [Compound 52, N-(2-Morpholin-4-ylethyl) 2-(4-cyclopropanecarboxamidophenylsulfanyl)-5-amino-6-(5-methylpyrazol-3-ylamino)-4-pyrimidinecarboxamide] yielded a GI50 in test [1] of 100 to 1000 nM. Also, the inhibition at 100 µM in test [2] was found to be 100%. Further, in test [3], the IC50 is less than 100 nM.
On to `COCCNC(=O)c1nc(Sc2ccc(NC(=O)C3CC3)cc2)nc(Nc2cc(C)[nH]n2)c1N` [Compound 43, N-(2-Methoxyethyl) 2-(4-cyclopropanecarboxamidophenylsulfanyl)-5-amino-6-(5-methylpyrazol-3-ylamino)-4-pyrimidinecarboxamide], for which the GI50 in test [1] lay in the range of 100 to 1000 nM. Also, the half-inhibitory concentration (IC50) in test [3] was less than 100 nM.
